The values below come from patent publication US20250195513A1, “DEGRADATION OF IRAK4 BY CONJUGATION OF IRAK4 INHIBITORS WITH E3 LIGASE LIGAND AND METHODS OF USE” (BeiGene, Ltd., priority 2022, published 2025).

Molecules are shown by their SMILES.

Common to all, as to format: cell-based
The test system of assay [1] is IL-6 production in human PBMC. As to the kind of experiment: IL-6 Production Assay in Human PBMC (LPS stimulated). As to conditions: Homo sapiens, 5 h; for Emax: maximum inhibition, read-out: IL-6 (PBMC) 5 h IMax. In outline: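 Thawed PBMC were rested overnight at 37 °C, seeded at 0.2 million cells/well and pretreated with compounds for 24 h. They were then stimulated with LPS at 10 ng/mL for 5 h. IL-6 in the supernatant was quantified by TR-FRET.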

The subject of assay [2] is TNF-α production in THP-1 cells. Kind of assay: TNF-α Production Assay in THP-1 Cells (LPS stimulated). The conditions noted are these: Homo sapiens, THP-1, 24 h; for Emax: maximum inhibition, read-out: TNF-α (THP-1) 24 h IMax. An outline of the steps: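 Cells (0.2 million/well) pretreated with compounds for 24 h, then stimulated with LPS at 1 μg/mL final for 24 h. TNF-α in culture supernatant quantified by TR-FRET immunoassay.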

Assay [3] addresses T1, IRAK4 (Homo sapiens, UniProt Q9NWZ3).
T1 construct: endogenous in cells; host or cells: Karpas299
T1 sequence (Q9NWZ3 1-460): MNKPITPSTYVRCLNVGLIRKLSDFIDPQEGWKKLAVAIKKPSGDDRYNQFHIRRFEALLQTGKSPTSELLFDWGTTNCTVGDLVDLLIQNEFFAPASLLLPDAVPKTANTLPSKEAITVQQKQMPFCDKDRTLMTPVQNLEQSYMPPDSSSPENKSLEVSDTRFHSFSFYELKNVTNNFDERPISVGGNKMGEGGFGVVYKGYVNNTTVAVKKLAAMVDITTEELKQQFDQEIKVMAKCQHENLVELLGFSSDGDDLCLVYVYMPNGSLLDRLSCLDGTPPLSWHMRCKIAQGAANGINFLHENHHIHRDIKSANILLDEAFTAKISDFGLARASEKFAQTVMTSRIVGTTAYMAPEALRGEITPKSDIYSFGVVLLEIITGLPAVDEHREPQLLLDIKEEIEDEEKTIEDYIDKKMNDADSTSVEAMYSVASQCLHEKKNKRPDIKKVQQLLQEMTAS
Kind of assay: IRAK4 Degradation Assay (Karpas299, HTRF/TR-FRET). The conditions noted are these: Karpas-299 cells; for Dmax: maximum percentage of degradation. In outline: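 Karpas299 cells at 0.2 million per well were exposed to serially diluted compounds for 24 h or 5 h, then lysed. IRAK4 remaining in lysates was quantified by HTRF (665/620 nm) after overnight antibody incubation at room temperature. Percent degradation was fitted to a four-parameter curve to give IC50 (DC50).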

The target of assay [4] is T1, IRAK4. Kind of assay: IRAK4 Degradation Assay with Human Serum (Karpas299, HTRF/TR-FRET). The conditions noted are these: Karpas-299 in human serum, 24 hrs treatment; for DC50: read-out: IRAK4 degradtion with human serum assay DC50; for Dmax: read-out: IRAK4 degradtion with human serum assay Dmax (%). In outline:
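Karpas299 cells in human AB serum (0.2 million/well) treated with serial compound dilutions for 24 h. After lysis, IRAK4 quantified by HTRF (overnight antibody incubation at room temperature, 665/620 nm read). Degradation percentage fitted to four-parameter curve to give DC50.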
In general terms: TR-FRET usually uses a lanthanide donor and a delayed reading to cut background.

The mark [5] stands for this setting: 5 h treatment, read-out: IRAK4 in Karpas-299 (5 h) Dmax (%).
Setting [6] is: 5 h treatment, read-out: IRAK4 in Karpas-299 (5 h) DC50.
Setting [7] is: 24 h treatment, read-out: IRAK4 in Karpas-299 (24 h) Dmax (%).
Setting [8] is: 24 h treatment, read-out: IRAK4 in Karpas-299 (24 h) DC50.

By IC50 is commonly meant the concentration needed to halve the response being measured. Lower therefore signals inhibition by little substance. Usually Dmax stands for the greatest extent of degradation seen. As usually defined, the DC50 is the concentration giving 50% degradation. Regarding `CC(C)(O)c1cc2nn([C@H]3CC[C@H](N4CCN(C(=O)C5CN(c6cc(F)c([C@H]7CCC(=O)NC7=O)c(F)c6)C5)CC4)CC3)cc2cc1NC(=O)c1ccc2cc(C#N)cnn12` [Example 178, 3-cyano-N-(2-((1r,4r)-4-(4-(1-(4-((R)-2,6-dioxopiperidin-3-yl)-3,5-difluorophenyl)azetidine-3-carbonyl)piperazin-1-yl)cyclohexyl)-6-(2-hydroxypropan-2-yl)-2H-indazol-5-yl)pyrrolo[1,2-b]pyridazine-7-carboxamide], the figures for the IC50 in assay [1] and in assay [2] were 1.2 nM and 6.4 nM, respectively. Besides, the figures for the Emax in assay [1] and in assay [2] were 61% and 92%, respectively. Further, the Dmax is 97% at IRAK4 [3] (setting [5]), 98% at IRAK4 [3] (setting [7]) and 100% on IRAK4 [4]. For the same compound, the half-maximal degradation concentration (DC50) on IRAK4 [3] (setting [6]) was 0.6 nM; at IRAK4 [3] (setting [8]) it was 0.4 nM; at IRAK4 [4] it was 17 nM.

As for `CC(C)(O)c1cc2nn([C@H]3CC[C@H](N4CCN(CC5CN(c6cc(F)c([C@H]7CCC(=O)NC7=O)c(F)c6)C5)CC4)CC3)cc2cc1NC(=O)c1ccc2cc(C#N)cnn12` [Example 290, 3-cyano-N-(2-((1r,4r)-4-(4-((1-(4-((R)-2,6-dioxopiperidin-3-yl)-3,5-difluorophenyl)azetidin-3-yl)methyl)piperazin-1-yl)cyclohexyl)-6-(2-hydroxypropan-2-yl)-2H-indazol-5-yl)pyrrolo[1,2-b]pyridazine-7-carboxamide], the IC50 came out at 0.8 nM in assay [1] and 9 nM in assay [2]. Further, the Emax in assay [1] worked out at 71%; in assay [2], 96%. For the same compound, the Dmax at IRAK4 [3] (setting [7]) worked out at 98%; on IRAK4 [4], 99%. For the same compound, the DC50 at IRAK4 [3] (setting [8]) turned out to be 0.6 nM; at IRAK4 [4], 4.4 nM.

As for `COC[C@H]1CN(CCc2cc(F)c([C@H]3CCC(=O)NC3=O)c(F)c2)CCN1[C@H]1CC[C@H](n2cc3cc(NC(=O)c4ccc5cc(C#N)cnn45)c(C(C)(C)O)cc3n2)CC1` [Example 321, 3-cyano-N-(2-((1R,4r)-4-((R)-4-(4-((R)-2,6-dioxopiperidin-3-yl)-3,5-difluorophenethyl)-2-(methoxymethyl)piperazin-1-yl)cyclohexyl)-6-(2-hydroxypropan-2-yl)-2H-indazol-5-yl)pyrrolo[1,2-b]pyridazine-7-carboxamide], the IC50 is 0.4 nM in assay [1] and 55 nM in assay [2]. Besides, the Emax in assay [1] came out at 58%; in assay [2], 77%. The results for the Dmax at IRAK4 [3] (setting [7]) and at IRAK4 [4] were 96% and 98%, respectively. Moreover, the DC50 came out at 1.4 nM on IRAK4 [3] (setting [8]) and 5.5 nM on IRAK4 [4].

Regarding `COC[C@H]1CN(CC2CN(c3cc(F)c([C@H]4CCC(=O)NC4=O)c(F)c3)C2)CCN1[C@H]1CC[C@H](n2cc3cc(NC(=O)c4ccc5cc(C#N)cnn45)c(C(C)(C)O)cc3n2)CC1` [Example 322, 3-cyano-N-(2-((1R,4r)-4-((R)-4-((1-(4-((R)-2,6-dioxopiperidin-3-yl)-3,5-difluorophenyl)azetidin-3-yl)methyl)-2-(methoxymethyl)piperazin-1-yl)cyclohexyl)-6-(2-hydroxypropan-2-yl)-2H-indazol-5-yl)pyrrolo[1,2-b]pyridazine-7-carboxamide], the IC50 in assay [1] is 9.7 nM; in assay [2], 42 nM. The Emax in assay [1] was 81%; in assay [2] it was 94%. In addition, the Dmax on IRAK4 [3] (setting [5]) turned out to be 98%; on IRAK4 [3] (setting [7]) it was 97%; on IRAK4 [4] it was 101%. In addition, the DC50 came to 12 nM at IRAK4 [3] (setting [6]), 0.7 nM on IRAK4 [3] (setting [8]) and 19 nM at IRAK4 [4].

As for `CC(C)(O)c1cc2nn([C@H]3CC[C@H](N4CCN(C5CCN(c6cc(F)c(C7CCC(=O)NC7=O)c(F)c6)CC5)CC4)CC3)cc2cc1NC(=O)c1ccc2cc(C#N)cnn12` (stereo partly drawn) [Example 196, 3-cyano-N-(2-((1r,4r)-4-(4-(1-(4-((R)-2,6-dioxopiperidin-3-yl)-3,5-difluorophenyl)piperidin-4-yl)piperazin-1-yl)cyclohexyl)-6-(2-hydroxypropan-2-yl)-2H-indazol-5-yl)pyrrolo[1,2-b]pyridazine-7-carboxamide], the IC50 came to 11 nM in assay [1] and 20 nM in assay [2]. The Emax in assay [1] was 72%; in assay [2], 86%. In addition, the Dmax came to 99% at IRAK4 [3] (setting [5]), 99% at IRAK4 [3] (setting [7]) and 93% at IRAK4 [4]. The DC50 is 5.3 nM on IRAK4 [3] (setting [6]), 0.6 nM at IRAK4 [3] (setting [8]) and 8.8 nM at IRAK4 [4].

For `COC[C@H]1CN([C@H]2CC[C@H](n3cc4cc(NC(=O)c5ccc6cc(C#N)cnn56)c(C(C)(C)O)cc4n3)CC2)CCN1C1CCN(c2cc(F)c([C@H]3CCC(=O)NC3=O)c(F)c2)CC1` [Example 317, 3-cyano-N-(2-((1R,4r)-4-((R)-4-(1-(4-((R)-2,6-dioxopiperidin-3-yl)-3,5-difluorophenyl)piperidin-4-yl)-3-(methoxymethyl)piperazin-1-yl)cyclohexyl)-6-(2-hydroxypropan-2-yl)-2H-indazol-5-yl)pyrrolo[1,2-b]pyridazine-7-carboxamide], the results for the IC50 in assay [1] and in assay [2] were 1 nM and 41 nM, respectively. Also, the Emax in assay [1] was found to be 71%; in assay [2], 87%. Moreover, the Dmax on IRAK4 [3] (setting [5]) came to 95%; at IRAK4 [3] (setting [7]), 96%; on IRAK4 [4], 100%. Also, the figures for the 50% degradation concentration (DC50) on IRAK4 [3] (setting [6]), on IRAK4 [3] (setting [8]) and on IRAK4 [4] were 1.9 nM, 0.8 nM and 25 nM, respectively.

On to `CC(C)(O)c1cc2nn(C34CCC(N5CCN(C6CCN(c7cc(F)c([C@H]8CCC(=O)NC8=O)c(F)c7)CC6)CC5)(CC3)CC4)cc2cc1NC(=O)c1ccc2cc(C#N)cnn12` [Example 333, (R)-3-cyano-N-(2-(4-(4-(1-(4-(2,6-dioxopiperidin-3-yl)-3,5-difluorophenyl)piperidin-4-yl)piperazin-1-yl)bicyclo[2.2.2]octan-1-yl)-6-(2-hydroxypropan-2-yl)-2H-indazol-5-yl)pyrrolo[1,2-b]pyridazine-7-carboxamide], for which the half-maximal inhibitory concentration (IC50) amounted to 4.7 nM in assay [1] and 10 nM in assay [2]. Also, the Emax in assay [1] stood at 62%; in assay [2] it was 96%. Besides, the Dmax at IRAK4 [3] (setting [5]) worked out at 98%; at IRAK4 [3] (setting [7]) it was 97%; at IRAK4 [4], 93%. The results for the DC50 on IRAK4 [3] (setting [6]), on IRAK4 [3] (setting [8]) and at IRAK4 [4] were 3.9 nM, 2.4 nM and 23 nM, respectively.

Consider `CC(C)(O)c1cc2nn([C@H]3CC[C@H](N4CCN([C@H]5C[C@H](c6cc(F)c([C@H]7CCC(=O)NC7=O)c(F)c6)C5)CC4)CC3)cc2cc1NC(=O)c1ccc2cc(C#N)cnn12` [Example 364, 3-cyano-N-(2-((1R,4r)-4-(4-((1R,3R)-3-(4-((R)-2,6-dioxopiperidin-3-yl)-3,5-difluorophenyl)cyclobutyl)piperazin-1-yl)cyclohexyl)-6-(2-hydroxypropan-2-yl)-2H-indazol-5-yl)pyrrolo[1,2-b]pyridazine-7-carboxamide], for which the IC50 turned out to be 0.6 nM in assay [1] and 14 nM in assay [2]. Moreover, the Emax in assay [1] worked out at 74%; in assay [2] it was 98%. In addition, the Dmax was 96% on IRAK4 [3] (setting [5]), 96% at IRAK4 [3] (setting [7]) and 99% on IRAK4 [4]. In addition, the DC50 was 0.8 nM on IRAK4 [3] (setting [6]), 1.3 nM on IRAK4 [3] (setting [8]) and 4.6 nM on IRAK4 [4].
